Results reported in PubChem BioAssay AID1963449 (Molecular Pharmacology Branch, DTP, NCI, 2024).

Tested on: 596521-263-R-J1-PDC complex spheroid growth
Assay: Anticancer human tumor 596521-263-R-J1-PDC patient-derived soft tissue sarcoma cell line growth inhibition [Asc]
Settings: for IC50: curve of first compound; for viability, T/C: stronger effect = lower value
How it was run: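 Complex spheroids combining tumor cells with HUVEC endothelial cells and human MSCs, at 37 degrees C, 5% CO2; agents tested alone or combined, half-log dilutions from at or near clinical Cmax, or 10 microM if Cmax unknown.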

[1] = second compound 0.00949 µM, first compound 0.00316 µM
[2] = second compound 0.00949 µM, first compound 0.01 µM
[3] = second compound 0.00949 µM, first compound 0.0316 µM
[4] = second compound 0.00949 µM, first compound 0.1 µM
[5] = second compound 0.03 µM, first compound 0.00316 µM
[6] = second compound 0.03 µM, first compound 0.01 µM
[7] = second compound 0.03 µM, first compound 0.0316 µM
[8] = second compound 0.03 µM, first compound 0.1 µM
[9] = second compound 0.0949 µM, first compound 0.00316 µM
[10] = second compound 0.0949 µM, first compound 0.01 µM
[11] = second compound 0.0949 µM, first compound 0.0316 µM
[12] = second compound 0.0949 µM, first compound 0.1 µM
[13] = second compound 0.3 µM, first compound 0.00316 µM
[14] = second compound 0.3 µM, first compound 0.01 µM
[15] = second compound 0.3 µM, first compound 0.0316 µM
[16] = second compound 0.3 µM, first compound 0.1 µM
[17] = second compound 0.949 µM, first compound 0.00316 µM
[18] = second compound 0.949 µM, first compound 0.01 µM
[19] = second compound 0.949 µM, first compound 0.0316 µM
[20] = second compound 0.949 µM, first compound 0.1 µM
[21] = second compound 3 µM, first compound 0.00316 µM
[22] = second compound 3 µM, first compound 0.01 µM
[23] = second compound 3 µM, first compound 0.0316 µM
[24] = second compound 3 µM, first compound 0.1 µM
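Further: spheroids exposed to compounds for 7 days.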

For `COc1c(OCCCN2CCOCC2)ccc2c3n(c(=NC(=O)c4cnc(N)nc4)nc12)CCN3` + CCN1C(C(=O)NC23CCC(C(=O)O)(CC2)CC3)C(c2cccc(Cl)c2F)C2(C(=O)Nc3cc(Cl)ccc32)C12CCCCC2, the IC50 (second compound 0.00949 µM) was 199 nM, the IC50 (second compound 0.03 µM) was 182 nM and the IC50 (second compound 0.0949 µM) was 159 nM. For the same molecule, the IC50 (second compound 0.3 µM) was 212 nM, the IC50 (second compound 0.949 µM) was 105 nM and the IC50 (second compound 3 µM) was 125 nM. It also gave a viability, T/C [1] of 93.1%, a viability, T/C [2] of 90.5% and a viability, T/C [3] of 70.4%. The viability, T/C [4] was 67.6%, the viability, T/C (second compound 0.00949 µM, first compound 0.316 µM) was 39.1% and the viability, T/C (second compound 0.00949 µM, first compound 1 µM) was 24%. For the same molecule, the viability, T/C [5] was 97.5%, the viability, T/C [6] was 96.7% and the viability, T/C [7] was 80%. The viability, T/C [8] was 59.4%, the viability, T/C (second compound 0.03 µM, first compound 0.316 µM) was 42% and the viability, T/C (second compound 0.03 µM, first compound 1 µM) was 34.9%. For the same molecule, the viability, T/C [9] was 87.7%, the viability, T/C [10] was 96.3% and the viability, T/C [11] was 78.3%. It also gave a viability, T/C [12] of 59.1%, a viability, T/C (second compound 0.0949 µM, first compound 0.316 µM) of 37.5% and a viability, T/C (second compound 0.0949 µM, first compound 1 µM) of 31.4%. The viability, T/C [13] was 99.9%, the viability, T/C [14] was 83.8% and the viability, T/C [15] was 79.9%. The viability, T/C [16] was 64.8%, the viability, T/C (second compound 0.3 µM, first compound 0.316 µM) was 39.9% and the viability, T/C (second compound 0.3 µM, first compound 1 µM) was 29.9%. It also gave a viability, T/C [17] of 103%, a viability, T/C [18] of 97.3% and a viability, T/C [19] of 75.3%. The viability, T/C [20] was 50.9%, the viability, T/C (second compound 0.949 µM, first compound 0.316 µM) was 36.1% and the viability, T/C (second compound 0.949 µM, first compound 1 µM) was 30.1%. It also gave a viability, T/C [21] of 87.5%, a viability, T/C [22] of 85.4% and a viability, T/C [23] of 78.2%. It also gave a viability, T/C [24] of 52.3%, a viability, T/C (second compound 3 µM, first compound 0.316 µM) of 40.1% and a viability, T/C (second compound 3 µM, first compound 1 µM) of 38.7%.

`NC(=O)C(=Cn1cnc(-c2cc(C(F)(F)F)cc(C(F)(F)F)c2)n1)c1cncnc1` + CCN1C(C(=O)NC23CCC(C(=O)O)(CC2)CC3)C(c2cccc(Cl)c2F)C2(C(=O)Nc3cc(Cl)ccc32)C12CCCCC2 was tested, and the IC50 (second compound 0.00949 µM) was 32.9 nM, the IC50 (second compound 0.03 µM) was 33.6 nM and the IC50 (second compound 0.0949 µM) was 37.4 nM. The IC50 (second compound 0.3 µM) was 29.4 nM, the IC50 (second compound 0.949 µM) was 35.1 nM and the IC50 (second compound 3 µM) was 28.2 nM. For the same molecule, the viability, T/C (second compound 0.00949 µM, first compound 0.000949 µM) was 92%, the viability, T/C (second compound 0.00949 µM, first compound 0.003 µM) was 97.2% and the viability, T/C (second compound 0.00949 µM, first compound 0.00949 µM) was 68.5%. The viability, T/C (second compound 0.00949 µM, first compound 0.03 µM) was 61.4%, the viability, T/C (second compound 0.00949 µM, first compound 0.0949 µM) was 15.4% and the viability, T/C (second compound 0.00949 µM, first compound 0.3 µM) was 10.3%. The viability, T/C (second compound 0.03 µM, first compound 0.000949 µM) was 102%, the viability, T/C (second compound 0.03 µM, first compound 0.003 µM) was 96.3% and the viability, T/C (second compound 0.03 µM, first compound 0.00949 µM) was 78.8%. It also gave a viability, T/C (second compound 0.03 µM, first compound 0.03 µM) of 56.8%, a viability, T/C (second compound 0.03 µM, first compound 0.0949 µM) of 20.4% and a viability, T/C (second compound 0.03 µM, first compound 0.3 µM) of 11.5%. It also gave a viability, T/C (second compound 0.0949 µM, first compound 0.000949 µM) of 112%, a viability, T/C (second compound 0.0949 µM, first compound 0.003 µM) of 108% and a viability, T/C (second compound 0.0949 µM, first compound 0.00949 µM) of 87.8%. It also gave a viability, T/C (second compound 0.0949 µM, first compound 0.03 µM) of 61.4%, a viability, T/C (second compound 0.0949 µM, first compound 0.0949 µM) of 17.1% and a viability, T/C (second compound 0.0949 µM, first compound 0.3 µM) of 10.3%. It also gave a viability, T/C (second compound 0.3 µM, first compound 0.000949 µM) of 127%, a viability, T/C (second compound 0.3 µM, first compound 0.003 µM) of 91.7% and a viability, T/C (second compound 0.3 µM, first compound 0.00949 µM) of 77.3%. The viability, T/C (second compound 0.3 µM, first compound 0.03 µM) was 56.6%, the viability, T/C (second compound 0.3 µM, first compound 0.0949 µM) was 18% and the viability, T/C (second compound 0.3 µM, first compound 0.3 µM) was 8.14%. It also gave a viability, T/C (second compound 0.949 µM, first compound 0.000949 µM) of 104%, a viability, T/C (second compound 0.949 µM, first compound 0.003 µM) of 102% and a viability, T/C (second compound 0.949 µM, first compound 0.00949 µM) of 79.6%. The viability, T/C (second compound 0.949 µM, first compound 0.03 µM) was 61%, the viability, T/C (second compound 0.949 µM, first compound 0.0949 µM) was 16.3% and the viability, T/C (second compound 0.949 µM, first compound 0.3 µM) was 11.4%. For the same molecule, the viability, T/C (second compound 3 µM, first compound 0.000949 µM) was 88.2%, the viability, T/C (second compound 3 µM, first compound 0.003 µM) was 88.3% and the viability, T/C (second compound 3 µM, first compound 0.00949 µM) was 74.3%. It also gave a viability, T/C (second compound 3 µM, first compound 0.03 µM) of 48.4%, a viability, T/C (second compound 3 µM, first compound 0.0949 µM) of 22% and a viability, T/C (second compound 3 µM, first compound 0.3 µM) of 9.41%.

In the case of `NC1CCC(NC2CC2c2ccccc2)CC1` (stereo unspecified) + CCN1C(C(=O)NC23CCC(C(=O)O)(CC2)CC3)C(c2cccc(Cl)c2F)C2(C(=O)Nc3cc(Cl)ccc32)C12CCCCC2, the IC50 (second compound 0.00949 µM) is reported as > 100 nM, the IC50 (second compound 0.03 µM) is reported as > 100 nM and the IC50 (second compound 0.0949 µM) is reported as > 100 nM. For the same molecule, the IC50 (second compound 0.3 µM) was > 100 nM, the IC50 (second compound 0.949 µM) was > 100 nM and the IC50 (second compound 3 µM) was > 100 nM. The viability, T/C (second compound 0.00949 µM, first compound 0.000316 µM) was 98.8%, the viability, T/C (second compound 0.00949 µM, first compound 0.001 µM) was 78.1% and the viability, T/C [1] was 84.2%. For the same molecule, the viability, T/C [2] was 88.9%, the viability, T/C [3] was 83.7% and the viability, T/C [4] was 105%. It also gave a viability, T/C (second compound 0.03 µM, first compound 0.000316 µM) of 84.2%, a viability, T/C (second compound 0.03 µM, first compound 0.001 µM) of 85.3% and a viability, T/C [5] of 89.6%. It also gave a viability, T/C [6] of 87.6%, a viability, T/C [7] of 82.5% and a viability, T/C [8] of 88.7%. For the same molecule, the viability, T/C (second compound 0.0949 µM, first compound 0.000316 µM) was 95.3%, the viability, T/C (second compound 0.0949 µM, first compound 0.001 µM) was 87.9% and the viability, T/C [9] was 85%. The viability, T/C [10] was 84.5%, the viability, T/C [11] was 89.1% and the viability, T/C [12] was 81.4%. The viability, T/C (second compound 0.3 µM, first compound 0.000316 µM) was 87.7%, the viability, T/C (second compound 0.3 µM, first compound 0.001 µM) was 87.7% and the viability, T/C [13] was 80.7%. It also gave a viability, T/C [14] of 94.1%, a viability, T/C [15] of 85.4% and a viability, T/C [16] of 87.8%. The viability, T/C (second compound 0.949 µM, first compound 0.000316 µM) was 94.7%, the viability, T/C (second compound 0.949 µM, first compound 0.001 µM) was 87.2% and the viability, T/C [17] was 87.9%. For the same molecule, the viability, T/C [18] was 97.3%, the viability, T/C [19] was 92.8% and the viability, T/C [20] was 82.5%. The viability, T/C (second compound 3 µM, first compound 0.000316 µM) was 80.9%, the viability, T/C (second compound 3 µM, first compound 0.001 µM) was 83.2% and the viability, T/C [21] was 85.2%. For the same molecule, the viability, T/C [22] was 71%, the viability, T/C [23] was 75.9% and the viability, T/C [24] was 82.7%.
